Values of other authors, collected in PMC10323144, “Garbage in, garbage out: how reliable training data improved a virtual screening approach against SARS-CoV-2 MPro” (Frontiers in Pharmacology, 2023).

Tested on: MPro
Conditions: compiled from peer-reviewed sources (287 compounds) ref the 18 original articles; cited from earlier work

Compound	Class (MPro activity class)
CC(C)CC(NC(=O)OCc1ccccc1)C(=O)NC(CC1CCNC1=O)C(O)S(=O)(=O)O (centres unmarked) [GC-376]	1 (Compounds with IC50 < 10 µM or with a percentage of enzyme inhibition >50% at 10 µM were labelled as ACTIVE)
O=C(CCl)N1CCN(C(c2ccccc2)C2CCCCC2)CC1 (centres unmarked) [GIA-UNK-20b63697-6]	1 (Compounds with IC50 < 10 µM or with a percentage of enzyme inhibition >50% at 10 µM were labelled as ACTIVE)
O=C(OCC(O)CO)c1ccccc1Nc1ccnc2cc(Cl)ccc12 (centres unmarked) [GLAFENINE]	0 (compounds with IC50 > 20 μM, percentage inhibition <80% at 20 µM or 50 μM, or percentage enzyme inhibition <50% at 10 µM were labelled as INACTIVE)
O=C(Oc1cncc(Cl)c1)c1cccc2c1CCN2 [GRL-172]	1 (Compounds with IC50 < 10 µM or with a percentage of enzyme inhibition >50% at 10 µM were labelled as ACTIVE)
COc1cccc(Nc2c(C(N)=O)cnc3c(C)cc(S(=O)(=O)c4cccc(C(=O)N(C)C)c4)cc23)c1 [GSK-256066]	0 (compounds with IC50 > 20 μM, percentage inhibition <80% at 20 µM or 50 μM, or percentage enzyme inhibition <50% at 10 µM were labelled as INACTIVE)
CCOC(=O)c1ccc(OC(=O)CCCCCNC(=N)N)cc1 [Gabexate]	0 (compounds with IC50 > 20 μM, percentage inhibition <80% at 20 µM or 50 μM, or percentage enzyme inhibition <50% at 10 µM were labelled as INACTIVE)
CC(C)(C)[C@@H]1NC(=O)O[C@@H]2CCC[C@H]2OC/C=C/C(F)(F)c2nc3ccccc3nc2O[C@@H]2C[C@@H](C(=O)N[C@]3(C(=O)NS(=O)(=O)C4(C)CC4)C[C@H]3C(F)F)N(C2)C1=O [Glecaprevir]	0 (compounds with IC50 > 20 μM, percentage inhibition <80% at 20 µM or 50 μM, or percentage enzyme inhibition <50% at 10 µM were labelled as INACTIVE)
O=c1c(O)c(-c2ccc(O)cc2)oc2c(O)c(O)cc(O)c12 [Herbacetin]	0 (compounds with IC50 > 20 μM, percentage inhibition <80% at 20 µM or 50 μM, or percentage enzyme inhibition <50% at 10 µM were labelled as INACTIVE)
CCN(CCO)CCCC(C)Nc1ccnc2cc(Cl)ccc12 (centres unmarked) [Hydroxychloroquine]	0 (compounds with IC50 > 20 μM, percentage inhibition <80% at 20 µM or 50 μM, or percentage enzyme inhibition <50% at 10 µM were labelled as INACTIVE)
Cc1cc(C(=O)CN2CCCC2)c(C)n1-c1ccc(F)cc1 [IU1 S7134]	0 (compounds with IC50 > 20 μM, percentage inhibition <80% at 20 µM or 50 μM, or percentage enzyme inhibition <50% at 10 µM were labelled as INACTIVE)
CNC(=O)[C@H](Cc1c[nH]c2ccccc12)NC(=O)[C@@H](CC(=O)NO)CC(C)C [Ilomastat]	0 (compounds with IC50 > 20 μM, percentage inhibition <80% at 20 µM or 50 μM, or percentage enzyme inhibition <50% at 10 µM were labelled as INACTIVE)
O=C(C=Cc1ccc(O)c(O)c1)OC1CC(O)(C(=O)O)CC(OC(=O)C=Cc2ccc(O)c(O)c2)C1O (centres unmarked) [Isochlorogenic acid A]	0 (compounds with IC50 > 20 μM, percentage inhibition <80% at 20 µM or 50 μM, or percentage enzyme inhibition <50% at 10 µM were labelled as INACTIVE)
O=C(C=Cc1ccc(O)c(O)c1)OC1CC(O)(C(=O)O)CC(O)C1OC(=O)C=Cc1ccc(O)c(O)c1 (centres unmarked) [Isochlorogenic acid B]	0 (compounds with IC50 > 20 μM, percentage inhibition <80% at 20 µM or 50 μM, or percentage enzyme inhibition <50% at 10 µM were labelled as INACTIVE)
CCC(C)n1ncn(-c2ccc(N3CCN(c4ccc(OCC5COC(Cn6cncn6)(c6ccc(Cl)cc6Cl)O5)cc4)CC3)cc2)c1=O (centres unmarked) [Itraconazole]	0 (compounds with IC50 > 20 μM, percentage inhibition <80% at 20 µM or 50 μM, or percentage enzyme inhibition <50% at 10 µM were labelled as INACTIVE)
CCC(C)C1OC2(CCC1C)CC1CC(CC=C(C)C(OC3CC(OC)C(OC4CC(OC)C(O)C(C)O4)C(C)O3)C(C)C=CC=C3COC4C(O)C(C)=CC(C(=O)O1)C34O)O2 (centres unmarked) [Ivermectin]	0 (compounds with IC50 > 20 μM, percentage inhibition <80% at 20 µM or 50 μM, or percentage enzyme inhibition <50% at 10 µM were labelled as INACTIVE)
O=C(Cc1cccc(Cl)c1)Nn1cnc2ccccc21 [JAN-GHE-5a013bed-2]	1 (Compounds with IC50 < 10 µM or with a percentage of enzyme inhibition >50% at 10 µM were labelled as ACTIVE)
O=C(Cc1cccc(Cl)c1)Nn1cnc2ccccc2c1=O [JAN-GHE-5a013bed-3]	1 (Compounds with IC50 < 10 µM or with a percentage of enzyme inhibition >50% at 10 µM were labelled as ACTIVE)
Cc1ccncc1NC(=O)Cc1cccc(Br)c1 [JAN-GHE-83b26c96-12]	0 (compounds with IC50 > 20 μM, percentage inhibition <80% at 20 µM or 50 μM, or percentage enzyme inhibition <50% at 10 µM were labelled as INACTIVE)
O=C(Nc1cccnc1)N(CCC1CCCCC1)c1cccc(Cl)c1 [JOR-UNI-2fc98d0b-12]	1 (Compounds with IC50 < 10 µM or with a percentage of enzyme inhibition >50% at 10 µM were labelled as ACTIVE)
O=C(Nc1cnn2ccc(N3CCC[C@@H]3c3cc(F)ccc3F)nc12)N1CC[C@H](O)C1 [LAROTRECTINIB]	0 (compounds with IC50 > 20 μM, percentage inhibition <80% at 20 µM or 50 μM, or percentage enzyme inhibition <50% at 10 µM were labelled as INACTIVE)
Cc1nn(-c2ccccc2)c(Nc2cccc(C(F)(F)F)c2)c1NS(C)(=O)=O [LASSBio-428 (10)]	0 (compounds with IC50 > 20 μM, percentage inhibition <80% at 20 µM or 50 μM, or percentage enzyme inhibition <50% at 10 µM were labelled as INACTIVE)

Compound	Class (MPro activity class)
O=C(NN=Cc1c[nH]cn1)C1CCCCC1 [LASSBio-1600 (15)]	0 (compounds with IC50 > 20 μM, percentage inhibition <80% at 20 µM or 50 μM, or percentage enzyme inhibition <50% at 10 µM were labelled as INACTIVE)
O=C(CNc1c(-c2ccccc2)nc2ccccn12)NN=Cc1cccc2ccccc12 [LASSBio-1615 (11)]	0 (compounds with IC50 > 20 μM, percentage inhibition <80% at 20 µM or 50 μM, or percentage enzyme inhibition <50% at 10 µM were labelled as INACTIVE)
Cc1[nH]c2ccccc2c1C=NN(C)C(=O)c1ccc2c(c1)OCO2 [LASSBio-1649 (13)]	0 (compounds with IC50 > 20 μM, percentage inhibition <80% at 20 µM or 50 μM, or percentage enzyme inhibition <50% at 10 µM were labelled as INACTIVE)
CN1C(=O)C(=NNC(=O)c2ccc3c(c2)OCO3)c2ccccc21 [LASSBio-1652 (16)]	0 (compounds with IC50 > 20 μM, percentage inhibition <80% at 20 µM or 50 μM, or percentage enzyme inhibition <50% at 10 µM were labelled as INACTIVE)
Cc1csc(C(=O)NN=Cc2cccnc2)c1N [LASSBio-1891 (14)]	0 (compounds with IC50 > 20 μM, percentage inhibition <80% at 20 µM or 50 μM, or percentage enzyme inhibition <50% at 10 µM were labelled as INACTIVE)
O=C(Nc1ccccc1)Nc1cnc2ccc([N+](=O)[O-])cc2n1 [LASSBio-1962 (8)]	0 (compounds with IC50 > 20 μM, percentage inhibition <80% at 20 µM or 50 μM, or percentage enzyme inhibition <50% at 10 µM were labelled as INACTIVE)
CC(=O)ON=C1C(=O)N(Cc2cc(Cl)ccc2Cl)c2ccc(Cl)cc21 [LDN-57444]	0 (compounds with IC50 > 20 μM, percentage inhibition <80% at 20 µM or 50 μM, or percentage enzyme inhibition <50% at 10 µM were labelled as INACTIVE)
O=C(CCl)N1CCN(S(=O)(=O)c2c(F)cccc2F)CC1 [LON-WEI-8f408cad-2]	1 (Compounds with IC50 < 10 µM or with a percentage of enzyme inhibition >50% at 10 µM were labelled as ACTIVE)
O=C(CCl)N1CCN(S(=O)(=O)c2cccs2)CC1 [LON-WEI-8f408cad-3]	1 (Compounds with IC50 < 10 µM or with a percentage of enzyme inhibition >50% at 10 µM were labelled as ACTIVE)
O=C(CCl)N1CCN(S(=O)(=O)c2cccc(F)c2)CC1 [LON-WEI-8f408cad-4]	1 (Compounds with IC50 < 10 µM or with a percentage of enzyme inhibition >50% at 10 µM were labelled as ACTIVE)
C=CC(=O)N(c1ccc(C(C)(C)C)cc1)C(C(=O)Nc1ccc(OC)cc1OC)c1cccnc1 (centres unmarked) [LON-WEI-adc59df6-45]	1 (Compounds with IC50 < 10 µM or with a percentage of enzyme inhibition >50% at 10 µM were labelled as ACTIVE)
C=CC(=O)N(c1ccc(C(C)(C)C)cc1)C(C(=O)NCCc1cccc(F)c1)c1cccnc1 (centres unmarked) [LON-WEI-adc59df6-47]	1 (Compounds with IC50 < 10 µM or with a percentage of enzyme inhibition >50% at 10 µM were labelled as ACTIVE)
C=CC(=O)N(c1ccc(C(C)(C)C)cc1)C(C(=O)NCCc1cccc(F)c1)c1cncc(C#N)c1 (centres unmarked) [LON-WEI-babf2c61-3]	1 (Compounds with IC50 < 10 µM or with a percentage of enzyme inhibition >50% at 10 µM were labelled as ACTIVE)
CS(=O)(=O)c1ncc(Cl)c(C(=O)Nc2ccccc2Cc2ccccc2)n1 [LON-WEI-ff7b210a-4]	1 (Compounds with IC50 < 10 µM or with a percentage of enzyme inhibition >50% at 10 µM were labelled as ACTIVE)
CCOC(=O)c1nc(S(C)(=O)=O)ncc1Cl [LON-WEI-ff7b210a-5]	1 (Compounds with IC50 < 10 µM or with a percentage of enzyme inhibition >50% at 10 µM were labelled as ACTIVE)
O=C(O)c1nn(Cc2ccc(Cl)cc2Cl)c2ccccc12 [LONIDAMINE]	0 (compounds with IC50 > 20 μM, percentage inhibition <80% at 20 µM or 50 μM, or percentage enzyme inhibition <50% at 10 µM were labelled as INACTIVE)
CC(NC(=O)C(O)c1cc(F)cc(F)c1)C(=O)NC1C(=O)N(C)c2ccccc2-c2ccccc21 (centres unmarked) [LY411575]	0 (compounds with IC50 > 20 μM, percentage inhibition <80% at 20 µM or 50 μM, or percentage enzyme inhibition <50% at 10 µM were labelled as INACTIVE)
C[C@@]1(c2cc(-c3cncnc3)c(F)cc2F)CCSC(N)=N1 [LY2811376]	0 (compounds with IC50 > 20 μM, percentage inhibition <80% at 20 µM or 50 μM, or percentage enzyme inhibition <50% at 10 µM were labelled as INACTIVE)
CC(=O)N[C@@H](CC(C)C)C(=O)N[C@@H](CC(C)C)C(=O)N[C@H](C=O)CCCNC(=N)N [Leupeptin]	0 (compounds with IC50 > 20 μM, percentage inhibition <80% at 20 µM or 50 μM, or percentage enzyme inhibition <50% at 10 µM were labelled as INACTIVE)
CC#CCn1c(N2CCCC(N)C2)nc2c1c(=O)n(Cc1nc(C)c3ccccc3n1)c(=O)n2C (centres unmarked) [Linafliptin]	0 (compounds with IC50 > 20 μM, percentage inhibition <80% at 20 µM or 50 μM, or percentage enzyme inhibition <50% at 10 µM were labelled as INACTIVE)
